# Legend:
# [1] = system: Human immunodeficiency virus 1; assay: Tested for the determination of percentage protection at 200 uM concentrations against HIV-1 in ATH8 Cells; format: functional
# [2] = system: Human immunodeficiency virus 1; assay: Tested for the determination of percentage toxicity at 200 uM concentrations against HIV-1 in ATH8 Cells; format: functional
# [3] = system: Human immunodeficiency virus 1; assay: Tested for the determination of percentage protection at 10 uM concentrations against HIV-1 in ATH8 Cells; format: functional
# [4] = system: Human immunodeficiency virus 1; assay: Tested for the determination of percentage toxicity at 100 uM concentrations against HIV-1 in ATH8 Cells; format: functional
# [5] = system: Human immunodeficiency virus 1; assay: Tested for the determination of percentage protection at 2 uM concentrations against HIV-1 in ATH8 Cells; format: functional
# [6] = system: Human immunodeficiency virus 1; assay: Tested for the determination of percentage toxicity at 10 uM concentrations against HIV-1 in ATH8 Cells; format: functional
# [7] = system: Human immunodeficiency virus 1; assay: Tested for the determination of percentage protection at 100 uM concentrations against HIV-1 in ATH8 Cells; format: functional
# [8] = system: Human alphaherpesvirus 2; assay: In vitro antiviral activity tested against herpesvirus, HSV-2, JEN strain by plaque reduction assay in human foreskin fibroblasts; format: functional
# [9] = organism: Homo sapiens; assay: The drug concentration was determined to reduce proliferation of human foreskin fibroblasts to 50% of untreated controls in proliferation assay; format: functional; details: read-out: ID50 (the source's name)
# [10] = system: Human alphaherpesvirus 1; assay: Tested for the effective dose required to inhibit HSV-1 in infected mice; format: functional, herpes simplex virus
# [11] = system: Human alphaherpesvirus 1; assay: Number of survivors per number of HSV-1 infected mice treated with 18.7 mg/kg/day; 10/10; format: functional, herpes simplex virus
# [12] = system: Human immunodeficiency virus 1; assay: Tested for the determination of percentage protection at 100 uM against HIV-1 in ATH8 cells; format: functional, ATH-8
# [13] = system: Human betaherpesvirus 5; assay: In vitro antiviral activity tested against herpesvirus, HCMV, EC strain by plaque reduction assay in human foreskin fibroblasts; format: functional
# [14] = system: Human alphaherpesvirus 1; assay: Number of survivors per number of HSV-1 infected mice treated with 4.7 mg/kg/day; 7/10; format: functional, herpes simplex virus
# [15] = system: Murid betaherpesvirus 1; assay: Number of survivors per number of systemic MCMV infected mice treated with 33.4 mg/kg/day; 13/15; format: functional
# [16] = system: Human alphaherpesvirus 2; assay: Number of survivors per number of HSV-2 infected mice treated with 7.8 mg/Kg/day; 5/10; format: functional, herpes simplex virus
# [17] = system: Human alphaherpesvirus 2; assay: Number of survivors per number of HSV-2 infected mice treated with 31.2 mg/Kg/day; 4/10; format: functional, herpes simplex virus
# [18] = system: Murid betaherpesvirus 1; assay: Number of survivors per number of systemic MCMV infected mice treated with 11.2 mg/kg/day; 9/15; format: functional
# [19] = system: Human alphaherpesvirus 2; assay: In vitro antiviral activity tested against herpesvirus, HSV-2, HEET strain by plaque reduction assay in human foreskin fibroblasts; format: functional
# [20] = system: Human betaherpesvirus 5; assay: In vitro antiviral activity tested against herpesvirus, HCMV, AD169 strain by plaque reduction assay in human foreskin fibroblasts; format: functional
# [21] = system: Human immunodeficiency virus 1; assay: Tested for the determination of percentage toxicity at 10 uM against HIV-1 in ATH8 cells; format: organism-based; details: human immunodeficiency virus 1, ath-8, 10 µM
# [22] = system: Murid betaherpesvirus 1; assay: Tested for the effective dose required to inhibit systemic MCMV in infected mice; format: functional
# [23] = system: Human alphaherpesvirus 1; assay: In vitro antiviral activity tested against herpesvirus, HSV-1, E-377 strain by plaque reduction assay in human foreskin fibroblasts; format: functional
# [24] = system: Raji; assay: Tested for the inhibition of diffuse early antigen production assayed by immunofluorescent monoclonal antibody in Raji cells; format: functional; details: Homo sapiens
# [25] = system: Human immunodeficiency virus 1; assay: Tested for the determination of percentage toxicity at 1 uM against HIV-1 in ATH8 cells; format: organism-based; details: human immunodeficiency virus 1, ath-8, 1 µM
# [26] = system: Human alphaherpesvirus 2; assay: Tested for mean day to death of nonsurvivors against HSV-2 encephalitis in mice at 31.2 mg/kg/day; format: functional, herpes simplex virus
# [27] = system: Human immunodeficiency virus 1; assay: Tested for the determination of percentage toxicity at 50 uM against HIV-1 in ATH8 cells; format: organism-based; details: human immunodeficiency virus 1, ath-8, 50 µM
# [28] = system: Murid betaherpesvirus 1; assay: Number of survivors per number of systemic MCMV infected mice treated with 100 mg/kg/day; 13/15; format: functional
# [29] = system: Human betaherpesvirus 5; assay: In vitro antiviral activity tested against herpesvirus, HCMV, Davis strain by plaque reduction assay in human foreskin fibroblasts; format: functional
# [30] = system: Human alphaherpesvirus 2; assay: In vitro antiviral activity tested against herpesvirus, HSV-2, MS strain by plaque reduction assay in human foreskin fibroblasts; format: functional
# [31] = system: Murid betaherpesvirus 1; assay: Number of survivors per number of systemic MCMV infected mice treated with 3.8 mg/kg/day; 7/15; format: functional
# [32] = system: Human immunodeficiency virus 1; assay: Tested for the determination of percentage protection at 50 uM against HIV-1 in ATH8 cells; format: functional, ATH-8
# [33] = system: Human alphaherpesvirus 3; assay: In vitro antiviral activity tested against herpesvirus, VZV, OKA strain by plaque reduction assay in human foreskin fibroblasts; format: functional
# [34] = system: Murid betaherpesvirus 1; assay: Tested for mean day to death of nonsurvivors against systemic MCMV infection in mice at 33.4 mg/kg/day; format: functional
# [35] = system: Human alphaherpesvirus 2; assay: Number of survivors per number of HSV-2 infected mice treated with 125 mg/kg/day; 8/10; format: functional, herpes simplex virus
# [36] = system: Human alphaherpesvirus 1; assay: Tested for mean day to death of nonsurvivors against HSV-1 infection in mice at 1.2 mg/kg/day; format: functional, herpes simplex virus
# [37] = system: Murid betaherpesvirus 1; assay: Tested for mean day to death of nonsurvivors against systemic MCMV infection in mice at 3.8 mg/kg/day; format: functional
# [38] = system: Human alphaherpesvirus 2; assay: Tested for mean day to death of nonsurvivors against HSV-2 encephalitis in mice at 7.8 mg/kg/day; format: functional, herpes simplex virus
# [39] = system: Murid betaherpesvirus 1; assay: Tested for mean day to death of nonsurvivors against systemic MCMV infection in mice at 100 mg/kg/day; format: functional
# [40] = system: Murid betaherpesvirus 1; assay: Tested for mean day to death of nonsurvivors against systemic MCMV infection in mice at 11.2 mg/kg/day; format: functional
# [41] = system: Human betaherpesvirus 5; assay: In vitro antiviral activity tested against herpesvirus, HCMV, LA strain by plaque reduction assay in human foreskin fibroblasts; format: functional
# [42] = system: Human alphaherpesvirus 2; assay: Tested for mean day to death of nonsurvivors against HSV-2 encephalitis in mice at 125 mg/kg/day; format: functional, herpes simplex virus
# [43] = system: Human alphaherpesvirus 3; assay: In vitro antiviral activity tested against herpesvirus, VZV, Ellen strain by plaque reduction assay in human foreskin fibroblasts; format: functional
# [44] = system: Human alphaherpesvirus 1; assay: Number of survivors per number of HSV-1 infected mice treated with 1.2 mg/kg/day; 4/10; format: functional, herpes simplex virus
# [45] = system: Human immunodeficiency virus 1; assay: Tested for the determination of percentage toxicity at 100 uM against HIV-1 in ATH8 cells; format: organism-based; details: human immunodeficiency virus 1, ath-8, 100 µM
# [46] = system: Human alphaherpesvirus 1; assay: Tested for mean day to death of nonsurvivors against HSV-1 infection in mice at 4.7 mg/kg/day; format: functional, herpes simplex virus
# [47] = system: Murid betaherpesvirus 1; assay: In vitro antiviral activity tested against herpesvirus, MCMV, Smith strain by plaque reduction assay in mouse embryo fibroblasts; format: functional
# [48] = system: Human alphaherpesvirus 2; assay: In vitro antiviral activity tested against herpesvirus, HSV-2, X-79 strain by plaque reduction assay in human foreskin fibroblasts; format: functional
# [49] = system: Human alphaherpesvirus 2; assay: Tested for the effective dose required to inhibit HSV-2 encephalitis in infected mice; format: functional, herpes simplex virus
# [50] = system: Human immunodeficiency virus 1; assay: Tested for the determination of percentage protection at 10 uM against HIV-1 in ATH8 cells; format: functional, ATH-8
# [51] = system: Human immunodeficiency virus 1; assay: Tested for the determination of percentage protection at 1 uM against HIV-1 in ATH8 cells; format: functional, ATH-8
# [52] = system: Human immunodeficiency virus 1; assay: Tested for the determination of percentage toxicity at 2 uM against HIV-1 in ATH8 cells; format: organism-based; details: human immunodeficiency virus 1, ath-8, 2 µM
# [53] = system: Human immunodeficiency virus 1; assay: Tested for the determination of percentage protection atuM against HIV-1 in ATH8 cells; format: functional, ATH-8
# [54] = system: Human immunodeficiency virus 1; assay: Tested for the determination of percentage protection atuM against HIV-1 in ATH8 Cells; format: functional
# [55] = system: Human immunodeficiency virus 1; assay: Tested for the determination of percentage toxicity at 500 uM against HIV-1 in ATH8 cells; format: organism-based; details: human immunodeficiency virus 1, ath-8, 500 µM
# [56] = system: Human immunodeficiency virus 1; assay: Tested for the determination of percentage protection at 10 uM against HIV-1 in ATH8; format: functional
# [57] = read-out: ED50 (the source's name)
# [58] = read-out: ID50 (the source's name)
smiles,measurement,setting,value
Nc1ncnc2c1ncn2[C@H]1CC[C@@H](CO)O1,Protection,[1],99%
same,Cytotoxicity,[2],0%
same,Protection,[3],99%
same,Cytotoxicity,[4],8%
same,Protection,[5],69%
same,Cytotoxicity,[6],0%
same,Protection,[7],100%
Nc1nc(O)c2ncn([C@@H]3C[C@H](CO)C3CO)c2n1 (some centres not stated),EC50,[8]; [57],0.05 µg/mL
same,IC50,[8]; [58],> 100 µg/mL
same,IC50,[9],27 µg/mL
same,ED50,[10],1.9 mg/kg/day
same,Survivors / treated,[11],10
same,Protection,[12],11%
same,EC50,[13]; [57],3.9 µg/mL
same,IC50,[13]; [58],> 100 µg/mL
same,Survivors / treated,[14],7
same,Survivors / treated,[15],13
same,Survivors / treated,[16],5
same,Survivors / treated,[17],4
same,Survivors / treated,[18],9
same,EC50,[19]; [57],0.07 µg/mL
same,IC50,[19]; [58],> 100 µg/mL
same,EC50,[20]; [57],6.2 µg/mL
same,IC50,[20]; [58],> 100 µg/mL
same,Cytotoxity,[21],0%
same,ED50,[22],2.2 mg/kg/day
same,EC50,[23]; [57],0.05 µg/mL
same,IC50,[23]; [58],> 100 µg/mL
same,EC50,[24]; [57],0.01 µg/mL
same,IC50,[24]; [58],94 µg/mL
same,Cytotoxity,[25],8%
same,MDD,[26],11.2
same,Cytotoxity,[27],41%
same,Survivors / treated,[28],13
same,EC50,[29]; [57],4.9 µg/mL
same,IC50,[29]; [58],> 100 µg/mL
same,EC50,[30]; [57],0.07 µg/mL
same,IC50,[30]; [58],> 100 µg/mL
same,Survivors / treated,[31],7
same,Protection,[32],46%
same,EC50,[33]; [57],0.4 µg/mL
same,IC50,[33]; [58],> 100 µg/mL
same,MDD,[34],4.5
same,Survivors / treated,[35],8
same,MDD,[36],9.3
same,MDD,[37],5.9
same,MDD,[38],12.1
same,MDD,[39],3.5
same,MDD,[40],5.8
same,EC50,[41]; [57],1.2 µg/mL
same,IC50,[41]; [58],> 100 µg/mL
same,MDD,[42],16.3
same,EC50,[43]; [57],0.4 µg/mL
same,IC50,[43]; [58],> 100 µg/mL
same,Survivors / treated,[44],4
same,Cytotoxity,[45],83%
same,MDD,[46],9.3
same,EC50,[47]; [57],0.1 µg/mL
same,IC50,[47]; [58],> 100 µg/mL
same,EC50,[48]; [57],0.06 µg/mL
same,IC50,[48]; [58],> 100 µg/mL
same,ED50,[49],39.8 mg/kg/day
same,Protection,[50],100%
same,Protection,[51],29%
Nc1nc2c(ncn2[C@H]2CC[C@@H](CO)O2)c(=O)[nH]1,Cytotoxicity,[52],0%
same,Protection,[12],99%
same,Protection,[53],48%
same,Cytotoxicity,[21],0%
same,Protection,[54],54%
same,Cytotoxicity,[55],50%
same,Cytotoxicity,[45],4%
same,Protection,[56],100%

# Reference: ChEMBL document CHEMBL1124752, “Cyclobut-A and cyclobut-G: broad-spectrum antiviral agents with potential utility for the therapy of AIDS” (J Med Chem, 1990)
